Experimental data: ChEMBL document CHEMBL4831477, “Structure-Enabled Discovery of Novel Macrocyclic Inhibitors Targeting Glutaminase 1 Allosteric Binding Site” (J Med Chem, 2021)
pIC50: −log10 of the molar value. Activity calls are given as the source filed them. No cut-off for these calls is given here.

Columns and labels:
[1] = Distribution coefficient, logD of the compound at pH 7.4 by LC-MS based shake-flask method; type: physicochemical; conditions: octanol/water, read-out: logD
[2] = Apparent volume of distribution in Sprague-Dawley rat at 200 mg/kg, po measured upto 72 hrs by LC-MS/MS analysis; type: ADME, organism-based; conditions: in vivo
HCT-116 [3] = experiment: Antitumor activity against human HCT-116 cells xenografted in BALB/c nude mouse assessed as tumor destruction at 200 mg/kg, po administered twice daily measured after 28 days by H and E staining based optical microscopic method; type: functional, organism-based; conditions: time 28.0 day
[4] = target: T1, Glutaminase kidney isoform, mitochondrial (Mus musculus) (UniProt D3Z7P3); experiment: In vivo inhibition of GLS1 in BALB/c mouse xenografted with human HCT-116 cells assessed as reduction in glutathione level at 200 mg/kg, po; type: functional, organism-based
T1 sequence (whole entry): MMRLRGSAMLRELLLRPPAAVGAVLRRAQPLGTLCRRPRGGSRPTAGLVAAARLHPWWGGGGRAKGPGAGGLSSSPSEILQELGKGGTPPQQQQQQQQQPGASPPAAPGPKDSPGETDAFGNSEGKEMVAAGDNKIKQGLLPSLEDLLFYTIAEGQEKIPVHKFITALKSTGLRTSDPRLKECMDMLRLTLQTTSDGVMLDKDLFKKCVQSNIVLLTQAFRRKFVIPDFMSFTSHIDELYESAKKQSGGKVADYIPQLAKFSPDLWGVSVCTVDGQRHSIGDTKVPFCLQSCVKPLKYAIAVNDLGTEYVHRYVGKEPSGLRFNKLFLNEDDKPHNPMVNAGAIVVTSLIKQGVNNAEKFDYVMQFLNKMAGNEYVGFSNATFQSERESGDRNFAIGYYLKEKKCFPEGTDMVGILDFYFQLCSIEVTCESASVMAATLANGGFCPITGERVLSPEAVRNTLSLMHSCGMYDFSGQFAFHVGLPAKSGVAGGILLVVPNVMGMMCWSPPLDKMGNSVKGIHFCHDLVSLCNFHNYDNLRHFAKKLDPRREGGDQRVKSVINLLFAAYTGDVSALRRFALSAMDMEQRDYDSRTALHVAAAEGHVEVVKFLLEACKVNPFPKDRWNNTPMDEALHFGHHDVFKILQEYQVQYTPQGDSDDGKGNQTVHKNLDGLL

[5] = Acute toxicity in BALB/c nude mouse assessed as lung damage at 200 mg/kg, po administered twice daily for 4 weeks by H and E staining based optical microscopic analysis; type: organism-based; conditions: in vivo, 672 h
[6] = Toxicity in BALB/c nude mouse xenografted with human HCT-116 cells assessed as tolerability at 200 mg/kg, po administered twice daily measured after 28 days; type: organism-based; conditions: in vivo, 672 h, time 28 day
[7] = Free plasma protein in mouse; type: ADME, cell-free
HCT-116 [8] = experiment: Antineoplastic activity against human HCT-116 cells xenografted in po dosed BALB/c nude mouse administered twice daily measured after 28 days; type: functional, organism-based; conditions: dose 200.0 mg/kg, time 28.0 day
[9] = Toxicity in BALB/c nude mouse xenografted with human HCT-116 cells assessed as body weight loss at 200 mg/kg, po administered twice daily for 28 days and measured every 3 days; type: organism-based; conditions: in vivo, 672 h, time 28 day
HCT-116 [10] = experiment: Antitumor activity against human HCT-116 cells xenografted in BALB/c nude mouse assessed as large areas of necrosis at 200 mg/kg, po administered twice daily measured after 28 days by H and E staining based optical microscopic analysis; type: functional, organism-based; conditions: time 28.0 day
[11] = AUC(0 to t) in Sprague-Dawley rat at 5 mg/kg, iv measured upto 72 hrs by LC-MS/MS analysis; type: ADME, organism-based; parameters: route intravenous, dose 5 mg/kg, time <=72; conditions: in vivo
[12] = Apparent volume of distribution in Sprague-Dawley rat at 5 mg/kg, iv measured upto 72 hrs by LC-MS/MS analysis; type: ADME, organism-based; conditions: in vivo, read-out: Vz
[13] = Half life in Sprague-Dawley rat at 5 mg/kg, iv measured upto 72 hrs by LC-MS/MS analysis; type: ADME, organism-based; conditions: in vivo
HCT-116 [14] = experiment: Antitumor activity against human HCT-116 cells xenografted in BALB/c nude mouse assessed as tumor growth inhibition at 200 mg/kg, po administered twice daily measured after 28 days; type: functional; conditions: Mus musculus, HCT-116, po, 672 h, time 28 day, read-out: TGI
[15] = Oral bioavailability in Sprague-Dawley rat at 200 mg/kg measured upto 72 hrs by LC-MS/MS analysis; type: ADME, organism-based; conditions: in vivo
[16] = Acute toxicity in BALB/c nude mouse assessed as liver damage at 200 mg/kg, po administered twice daily for 4 weeks by H and E staining based optical microscopic analysis; type: organism-based; conditions: in vivo, 672 h
[17] = Acute toxicity in BALB/c nude mouse assessed as spleen damage at 200 mg/kg, po administered twice daily for 4 weeks by H and E staining based optical microscopic analysis; type: organism-based; conditions: in vivo, 672 h
[18] = AUC(0 to infinity) in Sprague-Dawley rat at 5 mg/kg, iv measured upto 72 hrs by LC-MS/MS analysis; type: ADME, organism-based; parameters: route intravenous, dose 5 mg/kg, time <=72; conditions: Sprague-Dawley, in vivo
[19] = Clearance in Sprague-Dawley rat at 200 mg/kg, po measured upto 72 hrs by LC-MS/MS analysis; type: ADME, organism-based; conditions: in vivo, 200 mg/kg, 72 h
[20] = target: T1, Glutaminase kidney isoform, mitochondrial (Mus musculus); experiment: In vivo inhibition of GLS1 in BALB/c mouse xenografted with human HCT-116 cells assessed as reduction in malate level at 200 mg/kg, po; type: functional, organism-based
HCT-116 [21] = experiment: Induction of ROS generation in human HCT-116 cells incubated for 6 hrs by DCFH-DA dye based flow cytometric analysis; type: functional, cell-based; conditions: dose 50-500 nM
[22] = Acute toxicity in BALB/c nude mouse assessed as heart damage at 200 mg/kg, po administered twice daily for 4 weeks by H and E staining based optical microscopic analysis; type: organism-based; conditions: in vivo, 672 h
[23] = target: T1, Glutaminase kidney isoform, mitochondrial (Mus musculus); experiment: In vivo inhibition of GLS1 in BALB/c mouse xenografted with human HCT-116 cells assessed as reduction in fumarate level at 200 mg/kg, po; type: functional, organism-based
[24] = Metabolic stability in mouse liver microsomes assessed as clearance at 10 uM preincubated for 5 mins followed by NADPH addition by LC-MS/MS analysis; type: ADME, Microsome; conditions: read-out: CLH
HCT-116 [25] = experiment: Antitumor activity against human HCT-116 cells xenografted in BALB/c nude mouse assessed as karyorrhexis at 200 mg/kg, po administered twice daily measured after 28 days by H and E staining based optical microscopic method; type: functional, organism-based; conditions: time 28.0 day
Mus musculus = experiment: Induction of ROS generation in BALB/c mouse xenografted with human HCT-116 cells at 200 mg/kg, po; type: functional, organism-based
HCT-116 [26] = experiment: Antiproliferative activity against human HCT116 cells assessed as reduction in cell viability incubated for 72 hrs by MTT assay; type: functional, cell-based; conditions: HCT-116, 72 h
[27] = AUC(0 to t) in Sprague-Dawley rat at 200 mg/kg, po measured upto 72 hrs by LC-MS/MS analysis; type: ADME, organism-based; parameters: route oral, dose 200 mg/kg, time <=72; conditions: in vivo
[28] = Metabolic stability in mouse plasma assessed as compound remaining after 2 hrs by LC-MS/MS analysis; type: ADME, cell-free; conditions: read-out: Stability
[29] = Metabolic stability in human liver microsomes assessed as clearance at 10 uM preincubated for 5 mins followed by NADPH addition by LC-MS/MS analysis; type: ADME, Microsome; conditions: read-out: CLH

With `O=C1Cc2cccc(c2)OCC/C=C/CCOc2cccc(c2)CC(=O)Nc2nnc(s2)CCCCc2ccc(nn2)N1` the logD [1] was 3.13, the Vz [2] was 58.6 L/kg and the Activity (HCT-116 [3]) was “Active”. The inhibition [4] was “Active”, the Activity [5] was “Non-Toxic” and the Activity [6] was “Non-Toxic”. The fraction unbound [7] was 0.129, the Activity (HCT-116 [8]) was “Dose-Dependent Effect” and the Activity [9] was “Non-Toxic”. The Activity (HCT-116 [10]) was “Active”, the AUC(0-t) at 72 h [11] was 1630 ng·h/mL and the Vd [12] was 19.7 L/kg. The half-life [13] was 6.3 h, the inhibition in vivo at 200 mg/kg (HCT-116 [14]) was 39% and the bioavailability [15] was 9%. The Activity [16] was “Non-Toxic”, the Activity [17] was “Non-Toxic” and the AUC(0-inf) [18] was 1670 ng·h/mL. The CL [19] was 61.7 mL/min/kg, the inhibition [20] was “Active” and the Activity (HCT-116 [21]) was “Dose-Dependent Effect”. For the same molecule, the Activity [22] was “Non-Toxic”, the inhibition [23] was “Active” and the microsomal CLint at 10 µM [24] was 7.6 µL/min/mg. For the same molecule, the Activity (HCT-116 [25]) was “Active”, the Activity (Mus musculus) was “Active” and the pIC50 (HCT-116 [26]) was 7.10. It also gave an AUC(0-t) at 72 h [27] of 5920 ng·h/mL, a remaining at 2 h [28] of 89% and a microsomal CLint at 10 µM [29] of 3.2 µL/min/mg.
